Measured values: patent US20260356856A1, “KRAS G12S AND G12C INHIBITORS” (MIRATI THERAPEUTICS, INC., priority 2023, published 2026)

How the values were obtained:
[1] = biological target: T1, KRas-mediated phosphorylation of ERK in H358 cells (Homo sapiens, UniProt P01116, G12C); experiment: Inhibition of KRas-mediated phosphorylation of ERK (HTRF), H358 cells; type: cell-based; details: HTRF pERK, 3 h incubation
T1 construct: pERK HTRF read-out

[2] = biological target: T2, KRas-mediated phosphorylation of ERK in MKN1 cells (Homo sapiens, UniProt P01116); experiment: Inhibition of KRas-mediated phosphorylation of ERK (HTRF), MKN1 cells; type: cell-based; details: MKN1 cells (KRas WT); HTRF pERK; 3 h incubation
T2 construct: pERK HTRF read-out
T2 sequence (P01116 1-188 isoform P01116-2): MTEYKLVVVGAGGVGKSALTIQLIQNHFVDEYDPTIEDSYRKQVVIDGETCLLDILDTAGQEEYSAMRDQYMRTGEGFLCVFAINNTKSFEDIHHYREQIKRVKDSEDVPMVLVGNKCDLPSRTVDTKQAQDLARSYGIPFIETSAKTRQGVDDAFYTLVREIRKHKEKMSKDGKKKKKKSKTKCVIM
Protocol: Inhibition of KRas Phosphorylation of ERK (HTRF) by Exemplary Compounds of Formula (Ia) or (Ib)
Cisbio HTRF Advanced pERK Assay Catalog #64AERPEH • Cells: MKN1, PSN1 • Procedure: • 1. Day 1: Seed 6,000 cells/well −25 μl/well in 384-well white solid bottom plate; RPM1_10% FBS. Incubate overnight at 37 °C/5% CO2. • 2.

KRas G12S = biological target: T3, KRas G12S (Homo sapiens, UniProt P01116, G12S); experiment: KRas binding assay, TR-FRET displacement of Cy5 labelled tracer; details: 60-minute incubation at room temperature, 1% DMSO, pH 7.5
T3 construct: Biotinylated KRas (corresponding to amino acids 1-169, produced at Accelegan Inc.); biotin (biotinylated); purchased Accelegan Inc
T3 sequence (P01116 1-169 isoform P01116-2 G12S): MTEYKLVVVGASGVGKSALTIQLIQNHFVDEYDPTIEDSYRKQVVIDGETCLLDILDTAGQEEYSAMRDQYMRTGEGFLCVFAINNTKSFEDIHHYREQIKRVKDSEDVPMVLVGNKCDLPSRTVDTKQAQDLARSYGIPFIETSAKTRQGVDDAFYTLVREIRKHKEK
Outline: (§1)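 Final conditions: 1% DMSO, pH 7.5 HEPES buffer, 60 min, room temperature. Protein: biotin-KRas 1-169 with terbium streptavidin. Output: IC50, four-parameter fit of POC.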

KRas WT = biological target: T4, KRas WT (Homo sapiens, UniProt P01116); experiment: as above; details: 60-minute incubation at room temperature, 1% DMSO, pH 7.5
T4 construct: Biotinylated KRas (corresponding to amino acids 1-169, produced at Accelegan Inc.); biotin (biotinylated); purchased Accelegan Inc
T4 sequence (P01116 1-169 isoform P01116-2): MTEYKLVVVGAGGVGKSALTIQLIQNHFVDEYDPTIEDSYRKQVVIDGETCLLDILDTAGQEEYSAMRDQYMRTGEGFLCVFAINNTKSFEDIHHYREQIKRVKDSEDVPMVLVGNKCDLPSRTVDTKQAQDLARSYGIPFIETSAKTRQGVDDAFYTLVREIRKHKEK
Outline: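 Tb-streptavidin captured biotinylated KRas (1-169) in HEPES 50 mM, DTT 1 mM, MgCl2 5 mM, Tween-20 0.005% (pH 7.5), alongside tracer and compound at 1% final DMSO. One hour at RT, then read; IC50 from 4-parameter POC fit.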

KRas G12C = biological target: T5, KRas G12C (Homo sapiens, UniProt P01116, G12C); experiment: as above; details: 60-minute incubation at room temperature, 1% DMSO, pH 7.5
T5 construct: Biotinylated KRas (corresponding to amino acids 1-169, produced at Accelegan Inc.); biotin (biotinylated); purchased Accelegan Inc
T5 sequence (P01116 1-169 isoform P01116-2 G12C): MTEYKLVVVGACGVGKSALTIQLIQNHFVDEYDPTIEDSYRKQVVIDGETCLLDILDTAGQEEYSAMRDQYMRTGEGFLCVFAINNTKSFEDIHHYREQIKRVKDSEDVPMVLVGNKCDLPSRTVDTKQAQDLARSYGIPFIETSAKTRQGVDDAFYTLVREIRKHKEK
Outline: as §1

[3] = biological target: T6, KRas-mediated phosphorylation of ERK in A549 cells (Homo sapiens, UniProt P01116, G12S); experiment: Inhibition of KRas-mediated phosphorylation of ERK (HTRF), A549 cells; type: cell-based; details: HTRF pERK, 3 h incubation
T6 construct: pERK HTRF read-out
T6 sequence (P01116 1-188 isoform P01116-2 G12S): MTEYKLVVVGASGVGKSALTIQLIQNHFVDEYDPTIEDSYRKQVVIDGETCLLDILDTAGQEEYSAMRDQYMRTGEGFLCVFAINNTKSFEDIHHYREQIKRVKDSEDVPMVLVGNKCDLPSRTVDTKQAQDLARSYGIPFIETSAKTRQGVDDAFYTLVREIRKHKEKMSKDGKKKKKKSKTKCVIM

T1 sequence (P01116 1-188 isoform P01116-2 G12C): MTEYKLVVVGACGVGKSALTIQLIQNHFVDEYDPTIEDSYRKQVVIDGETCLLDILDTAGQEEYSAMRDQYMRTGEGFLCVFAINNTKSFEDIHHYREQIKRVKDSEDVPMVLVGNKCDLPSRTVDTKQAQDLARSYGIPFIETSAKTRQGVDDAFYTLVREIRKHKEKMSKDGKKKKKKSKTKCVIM

IC50 [1] [nM]	IC50 [2] [nM]	IC50 (KRas G12S) [nM]	IC50 (KRas WT) [nM]	IC50 (KRas G12C) [nM]	IC50 [3] [nM]	Compound
10	387	5	8	< 2	1180	CN(CCNC(=O)n1nccn1)c1nc(OC[C@@]23CCCN2C[C@H](F)C3)nc2c(F)c(-c3ccc(F)c4sc(N)c(C#N)c34)c(Cl)cc12 [Example 213, N-(2-((7-(2-amino-3-cyano-7-fluorobenzo[b]thiophen-4-yl)-6-chloro-8-fluoro-2-(((2R,7aS)-2-fluorotetrahydro-1H-pyrrolizin-7a(5H)-yl)methoxy)quinazolin-4-yl)(methyl)amino)ethyl)-2H-1,2,3-triazole-2-carboxamide]
1	15	7	6	< 2	290	N#Cc1c(N)sc2c(F)ccc(-c3c(Cl)cc4c(N5CCN(C(=O)n6nccn6)CC5)nc(OC[C@@]56CCCN5C[C@H](F)C6)nc4c3F)c12 [Example 191, 4-(4-(4-(2H-1,2,3-triazole-2-carbonyl)piperazin-1-yl)-6-chloro-8-fluoro-2-(((2R,7aS)-2-fluorotetrahydro-1H-pyrrolizin-7a(5H)-yl)methoxy)quinazolin-7-yl)-2-amino-7-fluorobenzo[b]thiophene-3-carbonitrile]
486	27	< 2	< 2	8	372	CCc1c(F)ccc2cc(O)cc(-c3ncc4c(N5CC6CCC(C5)C6C(=O)n5cccn5)nc(OC[C@@]56CCCN5C[C@H](F)C6)nc4c3F)c12 (stereo partly drawn) [Example 59, ((1R,5S,8S)-3-(7-(8-ethyl-7-fluoro-3-hydroxynaphthalen-1-yl)-8-fluoro-2-(((2R,7aS)-2-fluorotetrahydro-1H-pyrrolizin-7a(5H)-yl)methoxy)pyrido[4,3-d]pyrimidin-4-yl)-3-azabicyclo[3.2.1]octan-8-yl)(1H-pyrazol-1-yl)methanone]
29	41	11	14	14	28	CC(=O)N(C)C(=O)C1CCCN(c2nc(OC[C@@]34CCCN3C[C@H](F)C4)nc3c(F)c(-c4ccc(F)c5sc(N)c(C#N)c45)c(Cl)cc23)CC1 (stereo partly drawn) [Example 255, N-acetyl-1-(7-(2-amino-3-cyano-7-fluorobenzo[b]thiophen-4-yl)-6-chloro-8-fluoro-2-(((2R,7aS)-2-fluorotetrahydro-1H-pyrrolizin-7a(5H)-yl)methoxy)quinazolin-4-yl)-N-methylazepane-4-carboxamide]
2290	3330	885	798	578	464	CCc1c(F)ccc2cc(O)cc(-c3ncc4c(N5CCC(C(=O)n6nc(C)cc6C)CC5)nc(OC[C@@]56CCCN5C[C@H](F)C6)nc4c3F)c12 [Example 74, (3,5-dimethyl-1H-pyrazol-1-yl)(1-(7-(8-ethyl-7-fluoro-3-hydroxynaphthalen-1-yl)-8-fluoro-2-(((2R,7aS)-2-fluorotetrahydro-1H-pyrrolizin-7a(5H)-yl)methoxy)pyrido[4,3-d]pyrimidin-4-yl)piperidin-4-yl)methanone]
635	514	407	193	224	7190	CCc1c(F)ccc2cc(O)cc(-c3ncc4c(N5CCN(C(=O)n6ccc(C)n6)C(C(F)(F)F)C5)nc(OC[C@@]56CCCN5C[C@H](F)C6)nc4c3F)c12 (stereo partly drawn) [Example 127, (4-(7-(8-ethyl-7-fluoro-3-hydroxynaphthalen-1-yl)-8-fluoro-2-(((2R,7aS)-2-fluorotetrahydro-1H-pyrrolizin-7a(5H)-yl)methoxy)pyrido[4,3-d]pyrimidin-4-yl)-2-(trifluoromethyl)piperazin-1-yl)(3-methyl-1H-pyrazol-1-yl)methanone]
3250	1460	20	145	96	40	CCc1c(F)ccc2cc(O)cc(-c3ncc4c(N5CCCC(C(=O)n6ccc(C)n6)CC5)nc(OC[C@@]56CCCN5C[C@H](F)C6)nc4c3F)c12 (stereo partly drawn) [Example 63, (1-(7-(8-ethyl-7-fluoro-3-hydroxynaphthalen-1-yl)-8-fluoro-2-(((2R,7aS)-2-fluorotetrahydro-1H-pyrrolizin-7a(5H)-yl)methoxy)pyrido[4,3-d]pyrimidin-4-yl)azepan-4-yl)(3-methyl-1H-pyrazol-1-yl)methanone]
